Test results from patent US8912144B2, “Method for treating stroke via administration of NEP1-40 and inosine” (Children's Medical Center Corporation, priority 2003, dated 2014).
“Also recorded” adds a separate entry of the source.

Assays:
Assay type in all cases: in vivo, rat
[1] = system: sensorimotor cortex infarct; experiment: Lesion size / stroke volume after photothrombotic focal ischemia; details: 4 weeks treatment after focal ischemia
Description: All procedures were carried out in accordance with NIH Guidelines with the approval of Children's Hospital Animal Care and Use Committee. Unilateral in-farcts were induced in the sensorimotor cortex of adult Sprague-Dawley rats (275-300 g; Charles River Laboratories, Wilmington, Mass.) using the photothrombotic model of focal ischemia (Markgraf et al., 1993). Briefly, rats were anesthetized with a combination of ketamine (75 mg/kg) and Domitor (medetomidine; 0.5 mg/kg) and a 15 mm skin incision was made at the midline rostral to the posterior suture. A craniotomy was performed over the sensorimotor cortex using a hand-held drill to open a window that spanned medio-laterally between the sagittal sinus and temporal ridge, and rostro-caudally between Bregma +2.5 mm and Bregma −3.5 mm. […]
Sections through the telencephalon were cut at 10 μm, mounted on slides, and stained with Crystal Violet to determine the extent of the lesions. […] The area of the injured and uninjured hemisphere of each section was determined using NIH Image-J software. Lesion area was determined by subtracting the area of tissue remaining in the injured hemisphere from that in the uninjured hemisphere in sections spaced 250 μm apart spanning the full rostrocaudal extent of the lesion. […]

[2] = system: activated caspase-3; experiment: Activated caspase-3 profiles at the periphery of the stroke; details: standardized area on the periphery of the stroke
Description: A photothrombotic stroke model was used to generate unilateral ischemic lesions centered in the forelimb motor area of the cortex. The infarct area was determined using stereotaxic coordinates and was verified by histological analysis. Lesions were restricted to one hemisphere and included the caudal forelimb area of the primary motor cortex along with varying amounts of adjacent cortex (FIG. 10A and FIGS. 15 and 16). Lesion size varied among animals in each group, but there were no systematic between-group differences (lesion size [in pixels]=85.4±8.2 d [mean±S.E.M] for the saline-treated group and 81.1±8.6 for the inosine-treated group: difference not significant). […] This conclusion is further supported by the absence of any difference between inosine- and saline-treated cases in the number and size of profiles expressing activated caspase-3, as quantified focally in a standardized area on the periphery of the stroke (Caspase-3 profiles in saline-treated group=11.8±1.1, and in inosine treated group=11.9±1.5).

[3] = Skilled forelimb-reaching (food pellet retrieval) task after stroke; details: for food pellet retrieval with impaired paw, % of baseline: long-term study
Description: All procedures were carried out in accordance with NIH Guidelines with the approval of Children's Hospital Animal Care and Use Committee. Unilateral in-farcts were induced in the sensorimotor cortex of adult Sprague-Dawley rats (275-300 g; Charles River Laboratories, Wilmington, Mass.) using the photothrombotic model of focal ischemia (Markgraf et al., 1993). Briefly, rats were anesthetized with a combination of ketamine (75 mg/kg) and Domitor (medetomidine; 0.5 mg/kg) and a 15 mm skin incision was made at the midline rostral to the posterior suture. A craniotomy was performed over the sensorimotor cortex using a hand-held drill to open a window that spanned medio-laterally between the sagittal sinus and temporal ridge, and rostro-caudally between Bregma +2.5 mm and Bregma −3.5 mm. The photosensitive dye Rose Bengal was injected into the femoral vein, and a fiber-optic cable connected to a xenon light source was centered over the craniotomy, focusing light directly on the exposed region of the brain for 30 minutes. A green filter fitted over the bulb restricted illumination to ˜525 nm, a wavelength that excites Rose Bengal and causes it to release free radical species. The subsequent damage to endothelial cells in exposed portions of the cortical vasculature causes platelet aggregation, resulting in severe focal ischemia. […] Control animals were generated using the same surgical procedure but without photo-activation of Rose Bengal. Animals with strokes were randomly assigned to receive a continuous infusion of either saline (0.9%, Baxter Scientific; n=12), inosine (50 mM in saline, Sigma-Aldrich Co., St. Louis, Mo.; n=12), NEP1-40 (500 μM in 2.5% DMSO/97.5% saline; n=12), or inosine +NEP1-40 (n=12) into the cisterna magna using osmotic minipumps (0.25 μl/h, Alzet model 2004, Durect Corpora-tion, Palo Alto, Calif.). In addition to these, a separate set of animals with the same 4 groups (n=12 in each) was created for a long-term behavioral study. Because CSF drug concentrations presumably require several hours to achieve steady-state levels when delivered via slow-releasing osmotic pumps, all animals received a 25 μl intraventricular bolus of the appropriate agent prior to pump placement. Pumps were tucked between the shoulder blades and infusion needles were secured onto the cranium with a silicon-based glue. The incision was closed with silk sutures and cleaned with betadine and ethanol pads. For 72 hours following surgery, animals received twice-daily, subcu-taneous injections of Buprenex (buprenorphine; Reckitt Benkiser Pharmaceuticals Inc., Richmond, Va.) for pain management.
In animals in which both behavioral testing and anatomical tracing was performed, animals were tested at 7, 14, 21, and 28 days after surgery, whereas in the long-term behavioral study, minipumps were removed after 4 weeks and testing was continued weekly for another 4 weeks. All testing was done by an experimenter blind to the animals' treatments. A skilled forelimb-reaching task was used to test functional recovery after stroke. The task requires the rat to reach with either paw through a narrow slit in a Plexiglas box, grasp a banana-flavored food pellet (Bio-Serv, Inc., Frenchtown, N.J.) from a platform, and bring it successfully to the mouth (Allred and Jones, 2004; Luke et al., 2004). Three days prior to and during training, animals were maintained on a restricted diet of banana-flavored pellets to remove novelty-induced hesitation and to increase motivation. Rats were trained 30-60 minutes per day with each paw for two weeks or until they reached a baseline performance of 20-30 successful reaches in a two-minute period. At the end of the training period but prior to surgery, each animal was tested for the number of pellets it successfully grasped and ate in a two-minute trial, making certain that animals were motivated and stress-free. […]

[4] = system: C1q, C3, metallothionein; experiment: Immunohistochemistry for C1q, C3 and metallothionein in layer 5 of the uninjured forelimb motor cortex; details: 7 days after stroke
Description: To investigate whether some of the changes seen in the microarray study translate into differences at the protein level, immunohistochemistry was performed for C1q, C3, and metallothionein (Study VII). […] Immunohistochemistry was used to investigate whether inosine-induced changes found at the mRNA level translate into changes at the protein level. Analyses were carried out in layer 5 of the uninjured forelimb motor cortex 7 days after a stroke was induced in the corresponding region of the contralateral hemisphere. Inosine induced changes in levels of complement proteins C1q (a) and C3 (b) and metallothionine (c).

[5] = Basso-Beatty-Bresnahan (BBB) locomotor test after dorsal hemisection of the spinal cord; details: i.c.v. (50 mM, 0.25 μl/hour) or i.v. (260 mM, 10 μl/hour) for 4 weeks
Description: (§1) To test the effects of inosine on spinal cord injury, the dorsal half of the spinal cord in rats was transected, severing the descending CST and other pathways. CST loss severely disrupted fine, skilled behaviors. Inosine was then administered either intra-cerebroventricularly (50 mM, 0.25 μl/hour) or intravenously (260 mM, 10 μl/hour) for 4 weeks. […] Complete transection of the corticospinal tract was verified histologically. The effectiveness of inosine was clinically relevant, since it avoids the risk of intracerebral infection.

[6] = Horizontal (irregular) ladder walk after dorsal hemisection of the spinal cord; details: i.c.v. (50 mM, 0.25 μl/hour) or i.v. (260 mM, 10 μl/hour) for 4 weeks
Description: as §1

[7] = layer 5 of undamaged hemisphere
[8] = layer 5 of undamaged hemisphere, vs saline

## OC[C@H]1O[C@@H](n2cnc3c(O)ncnc32)[C@H](O)[C@@H]1O [inosine]
[1]
  lesion size (mean±S.E.M): 81.1±8.6 pixels
[2]
  Caspase-3 profiles: 11.9±1.5
[3]; 4-week study
  food pellet retrieval with impaired paw, outcome in words: superior to that of controls at 1 week
[3]; eight-week (long-term) study
  food pellet retrieval with impaired paw, outcome in words: significantly better than that of saline-treated controls from week 2 on
[3]; eight-week (long-term) study, listed as Inosine
  food pellet retrieval with impaired paw, outcome in words: strongly enhanced the effect of NEP1-40
[3]; week eight (4 weeks after pump removal)
  food pellet retrieval with impaired paw, % of baseline: ~80%
[3]; week four
  food pellet retrieval with impaired paw, % of baseline: ~70%
[3]; paw ipsilateral to the stroke
  performance with the unaffected (unimpaired) paw: performed normally; also recorded: No differences were detected
[3]; week 4 after stroke, 4-week study
  food pellet retrieval with impaired paw, percentage of baseline (pre-operative) level: approximately 80%
[4]
  metallothionine positively staining profiles per field: 17.9±0.8
[4]; vs saline
  increase of number of metallothionine positively staining profiles per field: 28%
[4]; [7]
  C1q average grain pixel density: 5654±894
  C3 average grain pixel density: 1377±101
[4]; [8]
  increase of C1q staining intensity: 75%
  increase of C3 staining intensity: 37%
[5]
  performance on BBB test for general locomotor activity: enhanced performance; also recorded: returned to near-normal level of performance
[6]
  performance on horizontal ladder walk: enhanced performance; also recorded: far superior to saline-treated controls
